Values belong to the compound of their own block, whether it stands above or below them.
Tests used:
Type in all cases: cell-based
[1] = target: T1, 5-HT3AR (serotonin (3) receptor subunit A, homopentamer) (Mus musculus, UniProt P23979); assay: cryo-EM structure ([…] Å); also TEVC inhibition of serotonin currents in oocytes
T1 construct: gene Htr3a; full-length, C-terminal 1D4-tag and four N-terminal strep-tags; modelled Thr7–Leu335 and Leu397–Ser462
T1 sequence (P23979 34-483 isoform P23979-2): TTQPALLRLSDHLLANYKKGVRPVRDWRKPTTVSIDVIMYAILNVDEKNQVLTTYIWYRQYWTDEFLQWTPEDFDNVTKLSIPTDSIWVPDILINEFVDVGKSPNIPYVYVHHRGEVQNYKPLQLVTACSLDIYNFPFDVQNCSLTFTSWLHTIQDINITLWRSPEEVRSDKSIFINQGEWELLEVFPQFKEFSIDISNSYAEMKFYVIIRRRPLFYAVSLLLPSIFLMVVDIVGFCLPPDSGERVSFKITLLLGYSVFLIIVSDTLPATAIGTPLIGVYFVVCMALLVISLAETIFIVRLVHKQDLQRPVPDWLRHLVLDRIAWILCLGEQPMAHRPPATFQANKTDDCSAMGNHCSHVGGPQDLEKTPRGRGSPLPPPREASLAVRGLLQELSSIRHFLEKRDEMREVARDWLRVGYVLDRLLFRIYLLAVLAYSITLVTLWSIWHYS

[2] = target: T2, 5-HT3AR (serotonin (3) receptor subunit A, homopentamer) (Mus musculus, UniProt P23979); assay: two-electrode voltage clamp in oocytes, inhibition of serotonin-induced current on co-application
T2 construct: gene Htr3a; 5-HT3AR expressed in Xenopus laevis oocytes
T2 sequence (P23979 24-489): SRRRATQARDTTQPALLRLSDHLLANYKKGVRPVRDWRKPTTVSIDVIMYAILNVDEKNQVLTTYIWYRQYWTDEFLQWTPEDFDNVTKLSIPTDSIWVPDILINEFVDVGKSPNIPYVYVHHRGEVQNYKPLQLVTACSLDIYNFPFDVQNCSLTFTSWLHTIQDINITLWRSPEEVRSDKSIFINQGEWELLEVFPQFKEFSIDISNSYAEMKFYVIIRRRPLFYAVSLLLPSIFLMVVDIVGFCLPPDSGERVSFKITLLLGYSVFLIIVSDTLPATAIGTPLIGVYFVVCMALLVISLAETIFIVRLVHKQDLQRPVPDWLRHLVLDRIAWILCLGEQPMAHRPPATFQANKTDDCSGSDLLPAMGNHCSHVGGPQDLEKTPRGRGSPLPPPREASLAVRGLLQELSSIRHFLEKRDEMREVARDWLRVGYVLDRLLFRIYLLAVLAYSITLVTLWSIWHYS

[3] = target: T1, 5-HT3AR (serotonin (3) receptor subunit A, homopentamer); assay: cryo-EM structure ([…] Å); also TEVC inhibition of serotonin currents in oocytes; remark: listed apart in the source
[4] = target: T1, 5-HT3AR (serotonin (3) receptor subunit A, homopentamer); assay: as above; remark: listed apart in the source

- potency for TEVC inhibition of serotonin currents [1]: ~ 0.1 nM
Structure (SMILES): Cc1[nH]cnc1CN1CCc2c(c3ccccc3n2C)C1=O [alosetron]

Structure (SMILES): CN1C2CCCC1CC(NC(=O)c1nn(C)c3ccccc13)C2 (stereo not shown) [granisetron]
- two-electrode voltage clamp in oocytes, inhibition of serotonin-induced current [2]: ~ 1 nM

- inhibition of serotonin currents in oocytes [3]: ~ 0.1 nM
Structure (SMILES): Cc1nccn1CC1CCc2c(c3ccccc3n2C)C1=O (stereo not shown) [ondansetron]

Structure (SMILES): O=C1c2cccc3c2[C@H](CCC3)CN1[C@@H]1CN2CCC1CC2 [palonosetron]
- cryo-EM structure (3.32 Å); also TEVC inhibition of serotonin currents in oocyte [4]: ~ 1 nM
